Assay results from US20060141027A1, “Sublingual administration of non-steroidal anti-inflammatory pharmacological substances” (priority 2003, published 2006).

Assay: experimentation on patients: sublingual versus traditional oral administration of FANS
Format: in vivo
Conditions: sublingual administration compared with oral formulation of the same agent
Source text: In the performed experimentation, the used sublingual preparations consisted of tablets which can be separated in two parts.

Row | Structure (SMILES) | therapeutic dose necessary for obtaining the desired anti-inflammatory effect
1 | O=C(O)Cc1ccccc1Nc1c(Cl)cccc1Cl [diclofenac] | reduction of the therapeutic dosage
2 | CC(=O)Nc1ccc(O)cc1 [paracetamol] | reduction of the therapeutic dosage
3 | CS(=O)(=O)Nc1ccc([N+](=O)[O-])cc1Oc1ccccc1 [nimesulid, nimesulide] | reduction of the therapeutic dosage
4 | CC(C(=O)O)c1cccc(C(=O)c2ccccc2)c1 (centres unmarked) [ketoprofen] | reduction of the therapeutic dosage
5 | CC(C)Cc1ccc(C(C)C(=O)O)cc1 (centres unmarked) [ibuprofen] | reduction of the therapeutic dosage
